The subject of data set [1] is Rattus norvegicus. Nature of the data set: Hypocholesteremic activity in Sprague-Dawley rat assessed as change in serum cholesterol level at 25 mg/kg, po administered through intubation tube daily for 7 days measured 24 hrs post last dose relative to vehicle-treated control. Format: functional.
The test system of data set [2] is Rattus norvegicus. Nature of the data set: Estrogenic activity in ovariectomized female Sprague-Dawley rat assessed as change in uterus weight measured as micrograms of […]-estradiol that produce an estrogenic response equivalent to compound at 25 mg/kg, po administered through intubation tube daily for 7 days. It is filed as ADME, organism-based. More on the design: dose 25 mg/kg, route oral. The note with it: in vivo, 168 h.

Turning to `COc1ccc(C(=O)C(c2ccccc2)c2ccccn2)cc1Br` (configuration not stated), the Activity in data set [1] is 11.3%.

Take `O=C(c1ccccc1)C(c1ccccc1)c1ccccn1` (configuration not stated): the Activity in data set [1] came to 2.5%.

With `O=C(c1ccccc1Br)C(c1ccccc1)c1ccccn1` (configuration not stated), the Activity in data set [1] is given as -54.1%. Moreover, in data set [2], the estradiol equivalent worked out at 0.87 µg.

Take `O=C(c1cccc(Br)c1)C(c1ccccc1)c1ccccn1` (configuration not stated): the Activity in data set [1] is reported as 6.7%.

Turning to `O=C(c1ccc(Br)cc1)C(c1ccccc1)c1ccccn1` (configuration not stated), the Activity in data set [1] is reported as -22.8%.

On to `O=C(c1ccccc1Cl)C(c1ccccc1)c1ccccn1` (configuration not stated), for which the Activity in data set [1] was -56.9%. In data set [2], the estradiol equivalent turned out to be 0.8 µg.

For `O=C(c1cccc(Cl)c1)C(c1ccccc1)c1ccccn1` (configuration not stated), the Activity in data set [1] came to 0%.

`O=C(c1ccc(Cl)cc1)C(c1ccccc1)c1ccccn1` (configuration not stated): the Activity in data set [1] is reported as -3.5%.

As for `O=C(c1ccccc1F)C(c1ccccc1)c1ccccn1` (configuration not stated), in data set [1], the Activity is -30%. The estradiol equivalent in data set [2] was 0.45 µg.

Consider `O=C(c1ccc(F)cc1)C(c1ccccc1)c1ccccn1` (configuration not stated), for which the Activity in data set [1] was -1.3%.

`O=C(c1ccccc1I)C(c1ccccc1)c1ccccn1` (configuration not stated): the Activity in data set [1] is -77.1%. For the same molecule, in data set [2], the estradiol equivalent is 0.7 µg.

In the case of `O=C(c1ccc(I)cc1)C(c1ccccc1)c1ccccn1` (configuration not stated), the Activity in data set [1] is 0%.

On to `Cc1ccccc1C(=O)C(c1ccccc1)c1ccccn1` (configuration not stated), for which, in data set [1], the Activity is recorded as -64.9%. The estradiol equivalent in data set [2] came out at 0.82 µg.

Turning to `Cc1cccc(C(=O)C(c2ccccc2)c2ccccn2)c1` (configuration not stated), the Activity in data set [1] is 13.2%.

Regarding `Cc1ccc(C(=O)C(c2ccccc2)c2ccccn2)cc1` (configuration not stated), the Activity in data set [1] stood at 1.5%.

`CC(C)(C)c1ccccc1C(=O)C(c1ccccc1)c1ccccn1` (configuration not stated): in data set [1], the Activity was -42%. For the same molecule, the estradiol equivalent in data set [2] was found to be 0.29 µg.

`CC(C)(C)c1ccc(C(=O)C(c2ccccc2)c2ccccn2)cc1` (configuration not stated): in data set [1], the Activity was determined as 0%.

With `COc1ccc(C(=O)C(c2ccccc2)c2ccccn2)cc1` (configuration not stated), in data set [1], the Activity was -15.7%.

Turning to `COc1ccc(C(=O)C(c2ccccc2)c2ccccn2)cc1OC` (configuration not stated), in data set [1], the Activity came to 6.3%.

Take `O=C(c1ccc2c(c1)OCO2)C(c1ccccc1)c1ccccn1` (configuration not stated): the Activity in data set [1] is on record as 6.3%.

Turning to `O=C(c1ccccc1Oc1ccccc1)C(c1ccccc1)c1ccccn1` (configuration not stated), in data set [1], the Activity is -15%.

Regarding `O=C(c1cccc(OCc2ccccc2)c1)C(c1ccccc1)c1ccccn1` (configuration not stated), the Activity in data set [1] came out at 12.1%.

Turning to `O=C(c1ccc(OCc2ccccc2)cc1)C(c1ccccc1)c1ccccn1` (configuration not stated), the Activity in data set [1] is 9.3%.

Consider `O=C(c1cccnc1)C(c1ccccc1)c1ccccn1` (configuration not stated), for which, in data set [1], the Activity is -2.1%.

In the case of `O=C(c1ccc2ccccc2c1)C(c1ccccc1)c1ccccn1` (configuration not stated), in data set [1], the Activity turned out to be 0%.

For the molecule `O=C(c1cc(-c2ccccc2)nc2cc(Cl)ccc12)C(c1ccccc1)c1ccccn1` (configuration not stated), the Activity in data set [1] worked out at 3.8%.

The record behind these values is ChEMBL document CHEMBL3272235, “alpha-(2-Pyridine)benzyl aryl ketones as potential hypocholesteremic agents” (J Med Chem, 1978).
